Data: patent US9226919B2, “Methods for dosing an orally active 1,2,4-oxadiazole” (PTC Therapeutics, Inc., priority 2006, dated 2016)
Where “and” joins values, the source holds several entries; their conditions need not be identical. Equal values may be shown once.

Assays:
Assay type in all cases: in vivo, human
cough = assay: Quantitative cough assessment (LifeShirt), mean cough frequency over 24 hours; conditions: FIG. 2; initial improvement, temporary increase, then overall improvement
Protocol: FIG. 2 provides the effect on mean cough frequency over 24 hours by the administration of 3-[5-(2-fluoro-phenyl)-[1,2,4]oxadiazol-3-yl]-benzoic acid to a subject.
The VivoMetrics, Inc. LifeShirt® incorporates motion-sensing transducers, electrodes, a throat microphone, calibration bag, and a 3-axis accelerometer into a lightweight, washable vest that is available for patients≧5 years of age (see LifeShirt® Monitoring System QuickStart Guide, incorporated by reference herein in its entirety). Using integrated input from the motion sensors and microphone, the frequency and intensity of cough can be measured. […]
(§1) The device was used to obtain the data set forth in FIG. 2 and will be used to offer substantial supplementary data regarding the clinical benefits of 3-[5-(2-fluoro-phenyl)-[1,2,4]oxadiazol-3-yl]-benzoic acid during Phase 3 testing in CF. […] Without being limited by theory, based on the hypothesis that 3-[5-(2-fluoro-phenyl)-[1,2,4]oxadiazol-3-yl]-benzoic acid-mediated induction of CFTR function would reduce airway obstruction and inflammation, a decrease in cough frequency could serve as a symptomatic integration of these pharmacological effects and might offer a more accurate and quantitative assessment than verbal patient reporting.

[1] = test system: patients with nonsense-mutation-mediated cystic fibrosis; assay: Investigator-asked changes in cystic fibrosis symptoms, Phase 2 studies
Description: In addition, although changes in patient's symptoms were not formally measured through the use of a quality-of-life questionnaire, trial investigators were requested to ask about changes in patients' cystic fibrosis symptoms. In the 15 patients included in the interim analysis, 6 reported general improvements in well being, 6 reported decrease in cough and 10 reported decreased mucus thickness and easier clearing of mucus.
as §1, with “CF. Existing informally collected symptom data from the Phase 2 studies of 3-[5-(2-fluoro-phenyl)-[1,2,4]oxadiazol-3-yl]-benzoic acid support this concept.” for “CF.”

serum CK = assay: Serum CK levels, Phase 2 DMD study; conditions: majority of subjects at 4-, 8-, 10-, 20-, 40-mg/kg dose levels (p=0.03, 0.002, 0.001)
Protocol: Serum CK activity is assessed using a commercially available NADH-linked kinetic assay (Diagnostic Chemicals Ltd., Oxford, Conn.). Serum CK levels are measured prior to treatment, on day 1 (prior to first dose), day 7, day 14, day 21, and day 27 during the treatment period, and on day 42 and day 56 after treatment. Serum CK is increased in Duchenne muscular dystrophy and therefore is a readily measurable diagnostic marker for the disease and may serve as a potential biomarker for the pharmacological activity of the drug (Mendell et al., 1989, New Eng. J. Med. 320(24):1592-1597).
Pre-treatment of primary muscle cells from 24 of the 26 boys in the first 2 cohorts were available for in vitro myotube culture. […] These changes were statistically significant (p=0.03, p=0.002, p=0.001 for low-, middle- and high doses, respectively). The return of mean values toward baseline upon cessation of treatment provided additional support for pharmacological activity.

dystrophin = assay: Dystrophin expression in EDB muscle biopsy by immunofluorescence, Phase 2 DMD study; conditions: for In Vivo Expression Response (dystrophin): individual DMD patients, 28 days
Protocol: Biopsy of the EDB muscle and overlying skin from one foot is performed under local anesthesia and conscious sedation (in some cases, general anesthesia may be required) prior to treatment, and from the other foot on the last day of treatment. The biopsy procedure is performed using standardized techniques (Stedman, 2000, Human Gene Therapy 11:777-90). The entire muscle belly (whenever possible) is removed in the procedure. At the time of collection of the biopsy prior to treatment, the muscle specimen is divided into at least 3 fragments and the biopsy specimen collected on the last day of treatment is divided into at least 2 fragments. The biopsy specimen is placed on a telfa gauze sponge moistened with Ringer's saline. The biopsy specimen is viewed at low power under a stereo dissection microscope to establish fiber orientation. The muscle is then transected using a sharp scalpel in a cross sectional fashion (perpendicular to the orientation of the fibers) whenever possible and allowed to rest for 2 minutes to allow for the cessation of spasm. The sample is then frozen in liquid nitrogen cooled isopentane, transferred to a liquid nitrogen reservoir and held 1 inch above the liquid/vapor interface for 2 minutes of slow cooling and isopentane evaporation before immersion in the liquid nitrogen, and wrapped into precooled (in liquid nitrogen and stored on dry ice) foil labeled with the study number, site number, patient number, date, patient initials, and foot side (right foot or left foot).
All sample containers are clearly labeled in a fashion that identifies the subject and the collection date. Labels are fixed to the sample containers in a manner that prevents the label from becoming detached. Samples are shipped for analysis/culture/central review immediately after the procedure is performed. For detection of dystrophin, 3 commercially available antibodies that recognize the C-terminus, the N-terminus, and the rod domain of the protein are employed. For detection of the sarcoglycan and dystroglycan complex, commercially available antibodies against α-, β-, γ-, and δ-sarcoglycan, and β-dystroglycan are used when possible. Epifluorescence microscopy is used in the analysis; images are captured by CCD camera, after normalization of the fluorescence intensity against a normal muscle specimen. Images are stored digitally and preserved for future review, and final evaluation at the completion of the study. Tissues are also processed for detection of dystrophin, the sarcoglycans, and β-dystroglycan by Western blotting using the same antibodies. Microscopic images are captured and preserved for future review, and for final evaluation at the completion of the study. Remaining muscle tissue samples are preserved for confirmatory assays of mRNA and proteins involved in DMD. […]

[2] = of 15 CF patients in interim analysis

SMILES: O=C(O)c1cccc(-c2noc(-c3ccccc3F)n2)c1 [3-[5-(2-fluoro-phenyl)-[1,2,4]oxadiazol-3-yl]-benzoic acid]
- Mean cough frequency over 24 hours (cough): overall improvement in mean cough frequency
- Patients reporting decrease in cough [1, 2]: 6
- Patients reporting decreased mucus thickness and easier clearing of mucus [1, 2]: 10
- Patients reporting general improvements in well being [1, 2]: 6
- Patient-described on-study coughing ([1]; several patients, informally collected symptom data, Phase 2 studies): decreases in coughing
- Serum CK, end-of-treatment versus pretreatment values (serum CK): decreases in CK
- In Vivo Expression Response (dystrophin) (dystrophin; High Dose: 20, 20, 40 mg/kg): Yes (6×) and No (6×)
- In Vivo Expression Response (dystrophin) (dystrophin; Low Dose: 4, 4, 8 mg/kg): Yes (4×) and No (2×)
- In Vivo Expression Response (dystrophin) (dystrophin; Middle Dose: 10, 10, 20 mg/kg): Yes (10×) and No (10×)
- Extensor digitorum brevis muscle membrane dystrophin on staining for the C-terminal domain (dystrophin; some patients at both dose levels, day 28 relative to baseline): Partial restoration or increase
